Three compounds from patent publication US20140155589A1 (priority 2011, published 2014) can be followed below.

Where two headings read alike, the source gives them in different places.

The series has as its system Pseudomonas aeruginosa (PA 01 strain). The following applies: for Amount of pyocyanine produced per viable bacterial count Relative value (%): relative to control without compound; for Viable bacterial count: shake culture 37° C. 48 hours; for viable bacterial count compared with control: summary of Table 12; for amount of pyocyanine produced per viable bacterial count compared with control: summary of Table 13.

Where [1] appears, read: Concentration of compound added 10 mM.
Setting [2] is: Concentration of compound added 20 mM.
Setting [3] is: Concentration of compound added 25 mM.

On to `C=CC(=O)O` [Acrylic acid], for which the “viable bacterial count compared with control” value is given as “almost no difference” and the “amount of pyocyanine produced per viable bacterial count compared with control” value was “larger than that in the control”. In addition, under setting [1], the “Amount of pyocyanine produced per viable bacterial count Relative value (%)” value is on record as 250.1% and the Viable bacterial count worked out at 1.09e+09 mL⁻¹. Under setting [2], the “Amount of pyocyanine produced per viable bacterial count Relative value (%)” value is 201.8% and the Viable bacterial count was 9.4e+08 mL⁻¹. Also, under setting [3], the “Amount of pyocyanine produced per viable bacterial count Relative value (%)” value is on record as 233.1% and the Viable bacterial count amounted to 8.4e+08 mL⁻¹.
On to `O=P(O)(O)O` [Phosphoric acid], for which the “viable bacterial count compared with control” value is listed as “almost no difference” and the “amount of pyocyanine produced per viable bacterial count compared with control” value is on record as “not so different”. Under setting [1], the “Amount of pyocyanine produced per viable bacterial count Relative value (%)” value is given as 118% and the Viable bacterial count is 1.6e+09 mL⁻¹. Further, under setting [2], the “Amount of pyocyanine produced per viable bacterial count Relative value (%)” value is reported as 105.8% and the Viable bacterial count is 1.56e+09 mL⁻¹. In addition, under setting [3], the “Amount of pyocyanine produced per viable bacterial count Relative value (%)” value worked out at 107.6% and the Viable bacterial count stood at 1.49e+09 mL⁻¹.
Take `O=P(O)(O)OP(=O)(O)OP(=O)(O)O` [Triphosphoric acid]: the “viable bacterial count compared with control” value is “almost no difference” and the “amount of pyocyanine produced per viable bacterial count compared with control” value is “significantly lower”. For the same compound, under setting [1], the “Amount of pyocyanine produced per viable bacterial count Relative value (%)” value turned out to be 40.3% and the Viable bacterial count was 1.5e+09 mL⁻¹. Further, under setting [2], the “Amount of pyocyanine produced per viable bacterial count Relative value (%)” value is 11.5% and the Viable bacterial count stood at 1.5e+09 mL⁻¹. Under setting [3], the “Amount of pyocyanine produced per viable bacterial count Relative value (%)” value came out at 5.4% and the Viable bacterial count amounted to 1.52e+09 mL⁻¹.
